Source: ChEMBL document CHEMBL1158196, “Isolation and synthesis of novel farnesyl protein transferase inhibitors, valinoctins A and B, from Streptomyces strain MJ858-NF3” (J Nat Prod, 1996)
Converted amounts (≈) assume the structure as drawn.

Experiment: Inhibition of bovine brain FPTase after 20 mins
Set-up: species or system Bos taurus

Compound `CCC(C)CC[C@@H](N)[C@H](O)C(=O)N[C@H](C(=O)O)C(C)C` (some centres not stated) [VALINOCTIN B] has an IC50 of 1 µg/mL (≈ 3.47 µM).
`CCCCC[C@@H](N)[C@H](O)C(=O)N[C@H](C(=O)O)C(C)C` [VALINOCTIN A] gave an IC50 of 0.9 µg/mL (≈ 3.28 µM).
